# Laboratory results reported in patent US20260226035A1, “THIOCHROMAN DERIVATIVE AND PREPARATION METHOD THEREFOR AND USE THEREOF” (SHANGHAI INSTITUTE OF MATERIA MEDICA, CHINESE ACADEMY OF …, priority 2022, published 2026).
# Read-outs that look alike come from different tables or passages of the source.
# Tests used:
# MCF-7 cells = assay: Inhibition of MCF-7 cell proliferation (CTG/ATP method); assay type: cell-based; details: for IC50: Homo sapiens, MCF7, 144 h, read-out: IC50 (nM), inhibitory activity on MCF-7 cell proliferation; for anti-tumor activity, times higher than SAR439859 / anti-tumor activity, times higher than fulvestrant: MCF-7 proliferation; for anti-tumor activity, times higher than SAR439859: vs SAR439859; for anti-tumor activity, times higher than fulvestrant: vs fulvestrant
# Description: The purpose of this experiment is to determine the in vitro proliferation inhibitory effect of the compounds of the present invention on the commonly used breast cancer estrogen receptor-positive cells, MCF-7 cells, and to evaluate the in vitro activity of the compounds based on IC50. The inhibitory effect of the compounds of the present invention on the proliferation of MCF-7 cells was tested by the ATP method, specifically the CTG method. CellTiter-Glo, referred to as CTG, is a rapid homogenous detection method for determining the number of viable cells in culture by quantifying ATP. ATP is a key indicator of the metabolism of living cells. The homogenous detection makes the cell lysis and the generated luminescent signal proportional to the amount of ATP present, and the amount of ATP is directly proportional to the number of cells in the culture. The specific experimental method is as follows. […] The cells were cultured in a 37° C. incubator under 5% CO2. Cell passaging, recovery and cryopreservation were performed according to conventional methods. […] On the second day, the drug with concentration gradient was added, 10 μL per well. […] The 96-well plate was incubated in 5% CO2 at 37° C. for 6 days. 50 μL of CTG reagent was added to each well of the 96-well plate, and the plate was shaken on a shaker for 5 min, and then left at room temperature and protected from light for 10 min. 60 μL of CTG reagent was transferred to the 384-well Opti-plate. The luminescence signals were read by a multifunctional enzyme marker, and the signal intensity was used to characterize the number of viable cells. The data of each dosing group were normalized to 100% of the mean value of the control group, and the data were processed and analyzed by GraphPad Prism software.
# MCF-7 Tam1 cells = assay: Inhibition of tamoxifen-resistant MCF-7 Tam1 cell proliferation (CTG); assay type: cell-based; details: Homo sapiens, MCF7:TAM1, 120 h, read-out: IC50 (nM), inhibitory activity on tamoxifen-resistant cells MCF-7 Tam1
# [1] = Pharmacokinetics in rats, oral; assay type: in vivo, SD rats; details: rat, 10 mg/kg
# Description: The purpose of this experiment is to test the pharmacokinetic properties of the compounds of the present invention in rats.
# The solvent is 5% DMSO+5% Solutol+90% (0.5% MC), which is a colorless and clear dosing solution. The dosing method and dosage are: oral, 10 mg/kg. SD rats were randomly divided into groups according to body weight, fasted but not watered for 12-14 hours one day before dosing, and fed 4 hours after dosing. 0.1 mL of blood was collected from each animal through the eye socket each time, anticoagulated with EDTAK2, and the collection time points were: 0, 5, 15, 30 minutes, 1, 2, 4, 6, 8, 24 hours after administration of the test compound. After blood sample collection, it was placed on ice and centrifuged within 30 minutes to separate plasma (centrifugation conditions: 5000 rpm, 10 minutes, 4° C.). It was stored at −80° C. before analysis. The concentration of compounds in rat plasma was determined by LC-MS/MS. The data acquisition and control system software was Analyst 1.5.1 software (Applied Biosystem). The peak integration method of the chromatogram sample was automatic integration; the ratio of the sample peak area to the internal standard peak area was used as an indicator and regressed with the concentration of the sample. Regression method: linear regression, weight coefficient is 1/X^2. Pharmacokinetic parameters were analyzed and processed by WinNonlin Professional v6.3 (Pharsight, USA) using non-compartmental model. Cmax is the maximum measured blood drug concentration, the area under the blood drug concentration-time curve AUC (0→t) was calculated by the trapezoidal method, and Tmax is the time when the blood drug concentration reaches the peak after administration. Experimental data are expressed as “mean±standard deviation” (Mean±SD, n≥3) or “mean” (Mean, n=2).
# in vivo = details: female, Sprague-Dawley (SD), rat, po, 10 mg/kg
# ERα of uterine tissue = ERα of uterine tissue (Rattus norvegicus, UniProt P06211); details: in vivo, po
# Description: HE experiment: 1) Cut the fixed uterine tissue into […] slices and place the slices in an oven for 1 hour; 2) Dewax the dried paraffin slices with conventional xylene, hydrate with gradient ethanol, and wash with distilled water; 3) Add hematoxylin to stain for 10 min to 30 min, then wash away the hematoxylin stain with running water; 4) Decolorize with 1% hydrochloric acid ethanol until the slices turn red and lighter in color, and then put them in running water to restore them to blue.
# [2] = tested on: MCF-7 mouse subcutaneous tumor model; assay: Growth inhibition in MCF-7 mouse subcutaneous tumor model; assay type: in vivo, mice; details: p.o., QD; for mean tumour volume (mm^3), 21 days / TGI(%): 21 days; for TGI(%): LSZ102 15 mg/kg, Example 4 5 mg/kg
# Description: Experimental reagents: fetal bovine serum (SH30070.03) (FBS, Hyclone, Logan, UT, USA); penicillin ([…]) (Sigma, St. Louis, MO, USA); streptomycin (85886) (Sigma, St. Louis, MO, USA); recombinant human insulin (91077C) (Sigma, St. Louis, MO, USA); EMEM medium (30-2003) (ATCC, Rockville, MD, USA); trypsin (15090046) (Gibco, Grand Island, NY, USA); HBSS ([…]), DMSO (D8418), PEG400 (8074851000), PEG300 (8074841000), PBS (806552), Solutol HS-15 (42966) (Sigma, St. Louis, MO, USA); Matrigel Matrix (BD Bioscience, USA); estrogen pellets (0.36 mg estradiol, 60-day release) (SE-121) (Innovative Research of America, Florida, USA); […] StarSignal Western Protein Marker (10-200 kDa) (M227-01) (GenStar, Beijing, China); Ponceau red, Tween 20, acrylamide, sodium dodecyl sulfate, PMSF (Solon, OH, USA); protein blotting membrane regeneration solution (ZN1923, Biolab, Beijing, China); protein lysis buffer (RIPA), 1.5 mol/L Tris HCl (pH 6.8), 1.5 mol/L Tris HCl (pH 8.8) (Beyotime, Shanghai, China); ECL luminescent solution (Thermo Fisher Scientific, Pittsburgh, PA, USA); […] Goat Anti-Rabbit IgG H&L (HRP) (ab6721) purchased from Abcam (Abcam, Cambridge, UK). […] Cell culture conditions: […] When the cells were fused to 90%, the old medium was discarded, and the cells were washed twice with 2 ml PBS. […] When the cells became round, 2 ml complete medium was quickly added to terminate digestion, and the cells were gently blown and collected, and centrifuged at 800 rpm, 4° C. for 5 min. The supernatant was discarded, the cells were resuspended with complete medium, cultured in bottles, and the medium was changed every other day. […] LSZ102 (15 mg/kg) group: […] LSZ-102 is a selective estrogen receptor degrader developed by Novartis in the clinical research stage and is one of the earliest oral SERDs to enter clinical research; […] The tumor inhibition efficacy of the compound was evaluated by tumor growth inhibition rate TGI (%).
# Sequence of ERα of uterine tissue (P06211 whole entry): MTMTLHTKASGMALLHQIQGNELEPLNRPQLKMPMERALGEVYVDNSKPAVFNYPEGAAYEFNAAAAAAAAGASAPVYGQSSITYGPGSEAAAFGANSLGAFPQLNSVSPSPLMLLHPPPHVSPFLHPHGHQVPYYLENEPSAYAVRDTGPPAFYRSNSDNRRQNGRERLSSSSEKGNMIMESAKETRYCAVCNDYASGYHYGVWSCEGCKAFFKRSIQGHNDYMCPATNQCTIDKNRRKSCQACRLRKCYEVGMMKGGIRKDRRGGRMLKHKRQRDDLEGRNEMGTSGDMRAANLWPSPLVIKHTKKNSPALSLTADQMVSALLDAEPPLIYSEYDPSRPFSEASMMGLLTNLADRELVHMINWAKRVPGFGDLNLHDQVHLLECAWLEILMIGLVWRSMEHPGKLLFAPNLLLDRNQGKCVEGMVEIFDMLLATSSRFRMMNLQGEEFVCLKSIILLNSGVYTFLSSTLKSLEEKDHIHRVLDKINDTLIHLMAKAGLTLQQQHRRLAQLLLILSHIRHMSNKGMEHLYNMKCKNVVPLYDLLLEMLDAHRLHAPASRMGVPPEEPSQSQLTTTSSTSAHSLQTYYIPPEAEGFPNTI
compound,measurement,setting,value
"O=C(O)c1ccc2c(c1)CCCC(c1ccc(Cl)cc1Cl)=C2c1ccc(O[C@H]2CCN(CCCF)C2)cc1 [SAR439859, reference compound]",IC50,MCF-7 cells,3.9 nM
"COc1cc(F)ccc1[C@H]1CSc2cc(O)ccc2[C@H]1c1ccc(OCCN2CC(CF)C2)cc1 [Example 18, (3S,4R)-3-(4-fluoro-2-methoxyphenyl)-4-(4-(2-(3-(fluoromethyl)azetidin-1-yl)ethoxy)phenyl-)7-hydroxythiochroman]","anti-tumor activity, times higher than SAR439859",MCF-7 cells,15.6 times
same,"anti-tumor activity, times higher than fulvestrant",MCF-7 cells,7.6 times
same,IC50,MCF-7 Tam1 cells,5.37 ± 0.42 nM
same,Tmax,"[1]; Sprague-Dawley (SD), plasma",3 h
same,half-life,"[1]; Sprague-Dawley (SD), plasma",8.92 h
same,MRTPO,[1],13.4 h
same,AUC0-t,[1]; plasma,1365 ng·h/mL
same,Cmax,[1]; plasma,198 ng/mL
same,concentration at 4 h,in vivo; brain,17400 ng/g
same,Kp at 4 h,in vivo; brain/plasma,14.1
same,concentration at 4 h,in vivo; plasma,1230 ng/mL
"Oc1ccc2c(c1)SC[C@H](c1cc(F)c(F)cc1F)[C@@H]2c1ccc(OCCN2CC(CF)C2)cc1 [Example 19, (3S,4R)-4-(4-(2-(3-(fluoromethyl)azetidin-1-yl)ethoxy)phenyl)-3-(2,4,5-trifluorophenyl)-7-hydroxythiochroman]","anti-tumor activity, times higher than SAR439859",MCF-7 cells,15.6 times
same,"anti-tumor activity, times higher than fulvestrant",MCF-7 cells,7.6 times
"C[C@]12CC[C@@H]3c4ccc(O)cc4C[C@@H](CCCCCCCCC[S+]([O-])CCCC(F)(F)C(F)(F)F)[C@H]3[C@@H]1CC[C@@H]2O (stereo partly drawn) [Fulvestrant, reference compound]",IC50,MCF-7 cells,1.9 nM
4-hydroxytamoxifen,Mean body weight,ERα of uterine tissue,43.9 g
"COc1cc(F)ccc1[C@@H]1CSc2cc(O)ccc2[C@@H]1c1ccc(OCCN2CC(CF)C2)cc1 (relative stereo) [Example 4, Cis-3-(4-fluoro-2-methoxyphenyl)-4-(4-(2-(3-(fluoromethyl)azetidin-1-yl)ethoxy)phenyl)-7-hydroxythiochroman]",IC50,MCF-7 Tam1 cells,6.84 ± 1.4 nM
same,"mean tumour volume (mm^3), 0 day",[2],202 mm^3
same,"mean tumour volume (mm^3), 21 days",[2],332 mm^3
same,TGI(%),[2],78%
"CC(F)(F)c1cc(F)ccc1-c1sc2cc(O)ccc2c1Oc1ccc(/C=C/C(=O)O)cc1 [LSZ102, reference compound]","mean tumour volume (mm^3), 0 day",[2],200 mm^3
same,"mean tumour volume (mm^3), 21 days",[2],345 mm^3
same,TGI(%),[2],75%
"COc1cc(F)ccc1C1CSc2cc(B(O)O)ccc2C1c1ccc(OCCN2CC(CF)C2)cc1 (stereo not drawn) [Example 10, Cis-(3-(4-fluoro-2-methoxyphenyl)-4-(4-(2-(3-(fluoromethyl)azetidin-1-yl)ethoxy)phenyl)thiochroman-7-boronic Acid]",IC50,"MCF-7 cells; MCF-7, CTG, 6 days",1.7 nM
